Data taken from publication PMC10530836, “Synthesis, Molecular Docking, and Biological Evaluation of Novel Anthranilic Acid Hybrid and Its Diamides as Antispasmodics” (International Journal of Molecular Sciences, 2023).
Read-outs that look alike come from different tables or passages of the source.

Columns and labels:
[1] = tested on: Enterococcus faecalis ATCC 29212; test: Antimicrobial activity, agar well diffusion; type: cell-based; conditions: Dose 0.6 mg/disk, dwell = 6 mm
Aspergillus flavus = test: Antimicrobial activity, agar well diffusion; type: cell-based; conditions: Dose 0.6 mg/disk, dwell = 6 mm
From the text: (§1) Twenty tested microorganisms including six Gram-positive bacteria (Bacillus subtilis ATCC 6633, Bacillus amyloliquefaciens 4BCL-YT, Staphylococcus aureus ATCC 25923, Listeria monocytogenes NBIMCC 8632, Enterococcus faecalis ATCC 19433), six Gram-negative bacteria (Salmonella enteritidis ATCC 13076, Klebsiella sp.—clinical isolate, Escherichia coli ATCC 25922, Proteus vulgaris ATCC 6380, Pseudomonas aeruginosa ATCC 9027), two yeasts (Candida albicans NBIMCC 74, Saccharomyces cerevisiae ATCC 9763), and six fungi (Aspergillus niger ATCC 1015, Aspergillus flavus, Penicillium sp., Rhizopus sp., Mucor sp.—plant isolates, Fusarium moniliforme ATCC 38932) from the collection of the Department of Microbiology at the University of Food Technologies—Plovdiv, Bulgaria, were selected for the antimicrobial activity test. The antimicrobial activity of the samples was determined by the agar well diffusion method. The tested bacteria B. subtilis and B. amyloliquefaciens were cultured on LBG agar at 30 °C. The test bacteria S. aureus, L. monocytogenes, E. faecalis, S. enteritidis, Klebsiella sp., E. coli, P. vulgaris, and P. aeruginosa were cultured on LBG agar at 37 °C for 24 h. The yeast C. albicans was cultured on MEA at 37 °C, while S. cerevisiae was cultured on MEA at 30 °C for 24 h. The fungi A. niger, A. flavus, Penicillium sp., Rhizopus sp., Mucor sp., and F. moniliforme were grown on MEA at 30 °C for 7 days or until sporulation. The inocula of the tested bacteria/yeasts was prepared by homogenization of a small amount of biomass in 5 mL of sterile 0.5% NaCl. The inocula of tested fungi were prepared by the addition of 5 mL of sterile 0.5% NaCl into the tubes. After stirring by vortex V-1 plus (Biosan), they were filtered and replaced in other tubes before use. The number of viable cells and fungal spores was determined using a bacterial counting chamber Thoma (Poly-Optik, GmbH, Bad Blankenburg, Germany). Their final concentrations were adjusted to 10^8 cfu/mL for bacterial/yeast cells and 10^5 cfu/mL for fungal spores and then inoculated in preliminarily melted and tempered at 45–48 °C LBG/MEA agar media. Next, the inoculated media were transferred in a quantity of 18 mL in sterile Petri plates (d = 90 mm) (Gosselin™, Hazebrouck, France) and allowed to harden. Then, six wells (d = 6 mm) per plate were cut, and triplicates of 60 μL of each extract were pipetted into the agar wells. The Petri plates were incubated in identical conditions. The antimicrobial activity was determined by measuring the diameter of the inhibition zones around the wells on the 24th and 48th h of incubation. Tested microorganisms with inhibition zones of 18 mm or more were considered sensitive; moderately sensitive were those in which the zones were from 12 to 18 mm; resistant were those in which the inhibition zones were up to 12 mm or completely missing.

[2] = tested on: Aspergillus niger ATCC 1015; test: Antimicrobial activity, agar well diffusion; type: cell-based; conditions: Dose 0.6 mg/disk, dwell = 6 mm
From the text: as §1

[3] = tested on: Bacillus subtilis ATCC 6633; test: Antimicrobial activity, agar well diffusion; type: cell-based; conditions: Dose 0.6 mg/disk, dwell = 6 mm
From the text: as §1

[4] = tested on: Escherichia coli ATCC 25922; test: Antimicrobial activity, agar well diffusion; type: cell-based; conditions: Dose 0.6 mg/disk, dwell = 6 mm
From the text: as §1

[5] = tested on: Listeria monocytogenes NBIMCC 8632; test: Antimicrobial activity, agar well diffusion; type: cell-based; conditions: Dose 0.6 mg/disk, dwell = 6 mm
From the text: as §1

[6] = tested on: Micrococcus luteus 2YC-YT; test: Antimicrobial activity, agar well diffusion; type: cell-based; conditions: Dose 0.6 mg/disk, dwell = 6 mm
From the text: as §1

Penicillium chrysogenum = test: Antimicrobial activity, agar well diffusion; type: cell-based; conditions: Dose 0.6 mg/disk, dwell = 6 mm
From the text: as §1

[7] = tested on: Proteus vulgaris ATCC 6380; test: Antimicrobial activity, agar well diffusion; type: cell-based; conditions: Dose 0.6 mg/disk, dwell = 6 mm
From the text: as §1

[8] = tested on: Pseudomonas aeruginosa ATCC 9027; test: Antimicrobial activity, agar well diffusion; type: cell-based; conditions: Dose 0.6 mg/disk, dwell = 6 mm
From the text: as §1

Rhizopus sp. = test: Antimicrobial activity, agar well diffusion; type: cell-based; conditions: Dose 0.6 mg/disk, dwell = 6 mm
From the text: as §1

[9] = tested on: Salmonella enteritidis ATCC 13076; test: Antimicrobial activity, agar well diffusion; type: cell-based; conditions: Dose 0.6 mg/disk, dwell = 6 mm
From the text: as §1

[10] = tested on: Salmonella typhimurium NBIMCC 1672; test: Antimicrobial activity, agar well diffusion; type: cell-based; conditions: Dose 0.6 mg/disk, dwell = 6 mm
From the text: as §1

MTT cell viability assay [11] = type: cell-based; conditions: human, 72 h exposure, ± SD, read-out: In vitro cytotoxicity IC50
Description: (§2) To evaluate the biocompatibility of the hybrid compounds, their in vitro antiproliferative activity was assessed in a panel of human malignant cell lines of different origin (K-562 and LAMA-84 suspension-growing myeloid leukemia cells, positive for the Philadelphia chromosome, and the urothelial bladder carcinoma cell line T-24 of adherent type). Non-malignant murine fibroblast cells (CCL-1) were also used as a screening platform. All cell lines were purchased from the German Collection of Microorganisms and Cell Cultures (DSMZ GmbH, Braunschweig, Germany). Cell cultures were cultivated in a growth medium RPMI 1640 supplemented with 10% fetal bovine serum (FBS), and 5% L-glutamine and were incubated under standard conditions of 37 °C and 5% humidified CO2 atmosphere. The effects of the newly synthesized anthranilic derivatives on cell viability were measured using a validated colorimetric assay for evaluating cell viability, known as the Mosmann MTT method. Exponential-phased cells were harvested and seeded (100 μL/well) in 96-well plates at the appropriate density (3 × 10^5 for the suspension cultures LAMA-84 and K-562 and 1.5 × 10^5 for the adherent T-24 and CCL-1 cells). Following a 24 h incubation, cells were treated with various concentrations of the experimental compounds in the concentration range of 200–12.5 μM. After an exposure time of 72 h, filter-sterilized MTT substrate solution (5 mg/mL in PBS) was added to each well of the culture plate. A further 2–4 h incubation allowed for the formation of purple insoluble formazan crystals. The latter was dissolved in isopropyl alcohol solution containing 5% formic acid prior to absorbance measurement at 550 nm. Collected absorbance values were blanked against MTT and isopropanol solution and normalized to the mean value of untreated control (100% cell viability).

MTT cell viability assay [12] = type: cell-based, murine; conditions: mouse, CCL-1 normal fibroblast cells (adherent); CCL-1, MTT, 72 h exposure, ± SD; read-out: In vitro cytotoxicity IC50
Description: as §2

[13] = K-562 myeloid leukemia cells (suspension), K-562, MTT
[14] = LAMA-84 myeloid leukemia cells (suspension), LAMA-84, MTT
[15] = T-24 urothelial bladder carcinoma cells (adherent), T-24, MTT

For `O=C(Nc1ccccc1C(=O)NCCc1cccc(Cl)c1)c1ccccc1` [Compound 4b, 2-benzamido-N-(3-chlorophenethyl)benzamide], the “Inhibition Zones” value [1] was 8 mm, the “Inhibition Zones” value (Aspergillus flavus) was 13 mm and the “Inhibition Zones” value [2] was 11 mm. For the same molecule, the “Inhibition Zones” value [3] was 11 mm, the “Inhibition Zones” value [4] was 11 mm and the “Inhibition Zones” value [5] was 12 mm. For the same molecule, the “Inhibition Zones” value [6] was 15 mm, the “Inhibition Zones” value (Penicillium chrysogenum) was 15 mm and the “Inhibition Zones” value [7] was 8 mm. The “Inhibition Zones” value [8] was 10 mm, the “Inhibition Zones” value (Rhizopus sp.) was 11 mm and the “Inhibition Zones” value [9] was 8 mm. For the same molecule, the “Inhibition Zones” value [10] was 8 mm, the IC50 at 72 h (MTT cell viability assay [11]; [13]) was 55.2 ± 4.7 µM and the IC50 at 72 h (MTT cell viability assay [11]; [14]) was 60.7 ± 5.3 µM. For the same molecule, the IC50 at 72 h (MTT cell viability assay [11]; [15]) was 94.9 ± 5 µM and the IC50 at 72 h (MTT cell viability assay [12]) was greater than 200 µM.
In the case of `CC(=O)Nc1ccccc1C(=O)NCCc1cccc(Cl)c1` [Compound 4a, 2-acetamido-N-(3-chlorophenethyl)benzamide], the “Inhibition Zones” value [1] is reported as 12 mm, the “Inhibition Zones” value (Aspergillus flavus) is reported as 8 mm and the “Inhibition Zones” value [2] is reported as 10 mm. The “Inhibition Zones” value [3] was 8 mm, the “Inhibition Zones” value [4] was 9 mm and the “Inhibition Zones” value [5] was 8 mm. For the same molecule, the “Inhibition Zones” value [6] was 10 mm, the “Inhibition Zones” value (Penicillium chrysogenum) was 13 mm and the “Inhibition Zones” value [7] was 8 mm. The “Inhibition Zones” value [8] was 9 mm, the “Inhibition Zones” value (Rhizopus sp.) was 8 mm and the “Inhibition Zones” value [9] was 12 mm. For the same molecule, the “Inhibition Zones” value [10] was 8 mm, the IC50 at 72 h (MTT cell viability assay [11]; [13]) was greater than 200 µM and the IC50 at 72 h (MTT cell viability assay [11]; [14]) was 112 ± 9.4 µM. It also gave an IC50 at 72 h (MTT cell viability assay [11]; [15]) greater than 200 µM and an IC50 at 72 h (MTT cell viability assay [12]) greater than 200 µM.
With `Nc1ccccc1C(=O)NCCc1cccc(Cl)c1` [Compound 3, 2-amino-N-(3-chlorophenethyl)benzamide] the “Inhibition Zones” value [1] was 12 mm, the “Inhibition Zones” value (Aspergillus flavus) was 20 mm and the “Inhibition Zones” value [2] was 20 mm. For the same molecule, the “Inhibition Zones” value [3] was 12 mm, the “Inhibition Zones” value [4] was 13 mm and the “Inhibition Zones” value [5] was 12 mm. For the same molecule, the “Inhibition Zones” value [6] was 19 mm, the “Inhibition Zones” value (Penicillium chrysogenum) was 20 mm and the “Inhibition Zones” value [7] was 8 mm. The “Inhibition Zones” value [8] was 14 mm, the “Inhibition Zones” value (Rhizopus sp.) was 20 mm and the “Inhibition Zones” value [9] was 12 mm. For the same molecule, the “Inhibition Zones” value [10] was 12 mm, the IC50 at 72 h (MTT cell viability assay [11]; [13]) was 154 ± 11.1 µM and the IC50 at 72 h (MTT cell viability assay [11]; [14]) was 115 ± 10.5 µM. The IC50 at 72 h (MTT cell viability assay [11]; [15]) was 137 ± 12.5 µM and the IC50 at 72 h (MTT cell viability assay [12]) was greater than 200 µM.
